Consider 24 molecules from patent US7420001B2 (Wyeth, priority 2003, dated 2008).

Like-named read-outs stand apart in the source and are kept apart here.

One test addresses T1, MMP-13 (Homo sapiens, UniProt P45452).
T1 construct: made in house
The test is described as follows: In-vitro fluorescence assay of MMP-13 activity. The format is biochemical.

Another test deals with T2, MMP-2 (Homo sapiens, UniProt P08253).
T2 construct: purchased Oncogene Research Products (Calbiochem) PF023
T2 sequence (P08253 110-660): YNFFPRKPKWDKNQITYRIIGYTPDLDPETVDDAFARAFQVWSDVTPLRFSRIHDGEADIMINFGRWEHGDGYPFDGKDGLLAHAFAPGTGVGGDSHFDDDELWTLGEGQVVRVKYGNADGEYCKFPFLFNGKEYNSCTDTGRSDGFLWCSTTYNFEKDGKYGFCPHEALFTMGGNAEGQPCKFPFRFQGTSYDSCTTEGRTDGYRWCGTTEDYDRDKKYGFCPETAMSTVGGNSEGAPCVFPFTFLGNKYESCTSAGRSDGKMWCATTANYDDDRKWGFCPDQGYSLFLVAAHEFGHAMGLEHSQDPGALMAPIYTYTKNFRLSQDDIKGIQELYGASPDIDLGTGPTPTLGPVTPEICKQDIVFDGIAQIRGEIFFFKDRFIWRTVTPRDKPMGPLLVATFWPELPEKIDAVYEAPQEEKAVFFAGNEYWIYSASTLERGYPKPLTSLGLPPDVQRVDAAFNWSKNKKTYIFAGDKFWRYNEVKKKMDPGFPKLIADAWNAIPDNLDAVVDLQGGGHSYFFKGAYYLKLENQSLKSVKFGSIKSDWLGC
The test can be described thus: In-vitro fluorescence assay of MMP-2 activity. The format is biochemical. The settings on record: recombinant human MMP-2; read-out: MMP-2 IC50.

[1] abbreviates: recombinant human catalytic domain of MMP-13, read-out: MMP-13 IC50.

By IC50 is commonly meant the concentration needed to halve the response being measured. On to `CCc1cccc2oc(C(=O)Nc3ccc(-c4ccc(S(=O)(=O)N[C@H](C(=O)O)C(C)C)cc4)cc3)c(C)c12` [Example 87, N-[(4′-{[(4-Ethyl-3-methyl-1-benzofuran-2-yl)carbonyl]amino}-1,1′-biphenyl-4-yl)sulfonyl]-L-valine], for which the 50% inhibitory concentration (IC50) was determined as 2.3 nM on MMP-13 (setting [1]) and 1410 nM on MMP-2.

In the case of `CC(=O)N(C)c1cccc2oc(C(=O)Nc3ccc(-c4ccc(S(=O)(=O)N[C@H](C(=O)O)C(C)C)cc4)cc3)c(C)c12` [Example 55, L-2-(4′-{[4-(Acetyl-methyl-amino)-3-methyl-benzofuran-2-carbonyl]-amino}-biphenyl-4-sulfonylamino)-3-methyl-butyric acid], the figures for the IC50 at MMP-13 (setting [1]) and at MMP-2 were 20 nM and 2380 nM, respectively.

As to `Cc1c(C(=O)Nc2ccc(-c3ccc(S(=O)(=O)N[C@H](C(=O)O)C(C)C)cc3)cc2)oc2cccc(CCCN(C)C)c12` [Example 32, L-2-(4′-{[4-(3-Dimethylamino-propyl)-3-methyl-benzofuran-2-carbonyl]-animo}-biphenyl-4-sulfonylamino)-3-methyl-butyric acid], the results for the half-inhibitory concentration (IC50) on MMP-13 (setting [1]) and on MMP-2 were 21 nM and 3150 nM, respectively.

For `CC(C)[C@H](NS(=O)(=O)c1ccc(-c2ccc(NC(=O)c3cc4cc(Br)ccc4o3)cc2)cc1)C(=O)O` [Example 84, N-[(4′-{[(5-Bromo-1-benzofuran-2-yl)carbonyl]amino}-1,1′-biphenyl-4-yl)sulfonyl]-L-valine], the IC50 was 0.6 nM at MMP-13 (setting [1]) and 0.9 nM on MMP-2.

`CCCOc1cccc2oc(C(=O)Nc3ccc(-c4ccc(S(=O)(=O)N[C@H](C(=O)O)C(C)C)cc4)cc3)c(C)c12` [Example 107, (S)-3-Methyl-2-{4′-[(3-methyl-4-propoxy-benzofuran-2-carbonyl)-amino]-biphenyl-4-sulfonylamino}-butyric acid]: the concentration for half-maximal inhibition (IC50) is 11 nM on MMP-13 (setting [1]) and 4220 nM on MMP-2.

Turning to `Cc1c(C(=O)Nc2ccc(-c3ccc(S(=O)(=O)N[C@H](C(=O)O)C(C)C)cc3)cc2)oc2cccc(N(C)C)c12` [Example 62, L-2-{4′-[(4-Dimethylamino-3-methyl-benzofuran-2-carbonyl)-amino]-biphenyl-4-sulfonylamino}-3-methyl-butyric acid], the IC50 on MMP-13 (setting [1]) amounted to 6.5 nM; on MMP-2, 5110 nM.

As to `Cc1c(C(=O)Nc2ccc(-c3ccc(S(=O)(=O)N[C@H](C(=O)O)C(C)C)cc3)cc2)oc2cccc(N3CCCS3(=O)=O)c12` [Example 73, L-2-(4′-{[4-(1,1-Dioxo-1λ^6-isothiazolidin-2-yl)-3-methyl-benzofuran-2-carbonyl]-amino}-biphenyl-4-sulfonylamino)-3-methyl-butyric acid], the IC50 at MMP-13 (setting [1]) was 11.9 nM; at MMP-2, 4770 nM.

`CC(C)[C@H](NS(=O)(=O)c1ccc(-c2ccc(NC(=O)c3cc4cc(Cl)ccc4o3)cc2)cc1)C(=O)O` [Example 4]: the half-inhibitory concentration (IC50) on MMP-13 (setting [1]) came to 0.3 nM; at MMP-2 it was 4.1 nM.

Take `Cc1c(C(=O)Nc2ccc(-c3ccc(S(=O)(=O)N[C@H](C(=O)O)C(C)C)cc3)cc2)oc2ccc(Cl)c(OC(C)C)c12` [Example 115, (S)-2-{4′-[(5-Chloro-4-isopropoxy-3-methyl-benzofuran-2-carbonyl)-amino]-biphenyl-4-sulfonylamino}-3-methyl-butyric acid]: the IC50 at MMP-13 (setting [1]) is 11 nM; on MMP-2, 3010 nM.

On to `COc1c(Cl)cc(Cl)c2oc(C(=O)Nc3ccc(-c4ccc(S(=O)(=O)N[C@H](C(=O)O)C(C)C)cc4)cc3)c(C)c12` [Example 117, (S)-2-{4′-[(5,7-Dichloro-4-methoxy-3-methyl-benzofuran-2-carbonyl)-amino]-biphenyl-4-sulfonylamino}-3-methyl-butyric acid], for which the figures for the IC50 on MMP-13 (setting [1]) and on MMP-2 were 199 nM and 20000 nM, respectively.

For the molecule `NC(=O)C[C@H](NS(=O)(=O)c1ccc(-c2ccc(NC(=O)c3cc4ccccc4o3)cc2)cc1)C(=O)O` [Example 15, N2-({4′-[(1-Benzofuran-2-ylcarbonyl)animo]-1,1′-biphenyl-4-yl}sulfonyl)-L-Asparagine], the IC50 worked out at 2.5 nM on MMP-13 (setting [1]) and 10 nM at MMP-2.

As to `Cc1c(COc2ccc(-c3ccc(S(=O)(=O)N[C@@H](C(=O)O)C(C)C)cc3)cc2)oc2ccc(Br)c(OC(C)C)c12` [Example 149, N-({4′-[(5-Bromo-4-isopropoxy-3-methyl-1-benzofuran-2-yl)methoxy]-1,1′-biphenyl-4-yl}sulfonyl)-D-valine], the concentration for half-maximal inhibition (IC50) was determined as 7.9 nM at MMP-13 (setting [1]) and 375 nM at MMP-2.

`COc1cccc2oc(C(=O)Nc3ccc(-c4ccc(S(=O)(=O)N[C@H](C(=O)O)C(C)C)cc4)cc3)cc12` [Example 11, N-[(4′-{[(4-methoxy-1-benzofuran-2-yl)carbonyl]amino}-1,1′-biphenyl-4-yl)sulfonyl]-L-valine]: the IC50 on MMP-13 (setting [1]) was found to be 2.3 nM; on MMP-2, 16 nM.

For the molecule `Cc1c(C(=O)Nc2ccc(-c3ccc(S(=O)(=O)N[C@H](C(=O)O)C(C)C)cc3)cc2)oc2cccc(N3CCOCC3)c12` [Example 114, (S)-3-methyl-2-{4′-[(3-methyl-4-morpholin-4-yl-benzofuran-2-carbonyl)-amino]-biphenyl-4-sulfonylamino}-butyric acid], the 50% inhibitory concentration (IC50) at MMP-13 (MMP-13 IC50, recombinant human catalytic domain of MMP-13) worked out at 32 nM; at MMP-2, 1630 nM.

Take `CC(C)[C@H](NS(=O)(=O)c1ccc(-c2ccc(NC(=O)c3cc(-c4ccc(Cl)cc4)no3)cc2)cc1)C(=O)O` [Example 166, (S)-2-(4′-{[3-(4-Chloro-phenyl)-isoxazole-5-carbonyl]-amino}-biphenyl-4-sulfonylamino)-3-methyl-butyric acid]: the results for the IC50 at MMP-13 (setting [1]) and on MMP-2 were 3.1 nM and 5.8 nM, respectively.

`CC(C)C[C@H](NS(=O)(=O)c1ccc(-c2ccc(NC(=O)c3cc4ccccc4o3)cc2)cc1)C(=O)O` [Example 18, N-({4′-[(1-Benzofuran-2-ylcarbonyl)amino]-1,1′-biphenyl-4-yl}sulfonyl)-L-leucine]: the IC50 at MMP-13 (setting [1]) amounted to 2.2 nM; on MMP-2, 8.4 nM.

As to `Cc1c(C(=O)Nc2ccc(-c3ccc(S(=O)(=O)N[C@H](C(=O)O)C(C)C)cc3)cc2)oc2cccc(CO)c12` [Example 92, N-{[4′-({[4-(Hydroxymethyl)-3-methyl-1-benzofuran-2-yl]carbonyl}amino)-1,1′-biphenyl-4-yl]sulfonyl}-L-valine], the IC50 at MMP-13 (setting [1]) worked out at 25 nM; on MMP-2 it was 3760 nM.

With `COCc1cccc2oc(C(=O)Nc3ccc(-c4ccc(S(=O)(=O)N[C@H](C(=O)O)C(C)C)cc4)cc3)c(C)c12` [Example 100, N-{[4′-({[4-(methoxymethyl)-3-methyl-1-benzofuran-2-yl]carbonyl}amino)-1,1′-biphenyl-4-yl]sulfonyl}-L-valine], the IC50 on MMP-13 (setting [1]) turned out to be 2.6 nM; at MMP-2, 2400 nM.

With `C#Cc1cccc2oc(C(=O)Nc3ccc(-c4ccc(S(=O)(=O)N[C@H](C(=O)O)C(C)C)cc4)cc3)c(C)c12` [Example 33, L-2-{4′-[(4-Ethynyl-3-methyl-benzofuran-2-carbonyl)-amino]-biphenyl-4-sulfonylamino}-3-methyl-butyric acid], the values for the IC50 on MMP-13 (setting [1]) and on MMP-2 were 6.1 nM and 595 nM, respectively.

For `CCS(=O)(=O)N(C)c1cccc2oc(C(=O)Nc3ccc(-c4ccc(S(=O)(=O)N[C@H](C(=O)O)C(C)C)cc4)cc3)c(C)c12` [Example 70, L-2-(4′-{[4-(Ethanesulfonyl-methyl-amino)-3-methyl-benzofuran-2-carbonyl]-amino}-biphenyl-4-sulfonylamino)-3-methyl-butyric acid], the values for the IC50 on MMP-13 (setting [1]) and at MMP-2 were 14 nM and 3470 nM, respectively.

As for `CCS(=O)(=O)Nc1cccc2oc(C(=O)Nc3ccc(-c4ccc(S(=O)(=O)N[C@H](C(=O)O)C(C)C)cc4)cc3)c(C)c12` [Example 68, L-2-{4′-[(4-Ethanesulfonylamino-3-methyl-benzofuran-2-carbonyl)-amino]-biphenyl-4-sulfonylamino}-3-methyl-butyric acid], the IC50 is 12 nM at MMP-13 (setting [1]) and 1650 nM at MMP-2.

Take `Cc1c(C(=O)Nc2ccc(-c3ccc(S(=O)(=O)N[C@H](C(=O)O)C(C)C)cc3)cc2)oc2cccc(C#CC(C)(C)C)c12` [Example 34, L-2-(4′-{[4-(3,3-Dimethyl-but-1-ynyl)-3-methyl-benzofuran-2-carbonyl]-amino}-biphenyl-4-sulfonylamino)-3-methyl-butyric acid]: the IC50 at MMP-13 (setting [1]) was 152 nM; at MMP-2 it was 2500 nM.

For the molecule `COc1c(C#N)ccc2oc(COc3ccc(-c4ccc(S(=O)(=O)N[C@H](C(=O)O)C(C)C)cc4)cc3)c(C)c12` [Example 143, L-2-[4′-(5-Cyano-4-methoxy-3-methylbenzofuran-2-ylmethoxy)-biphenyl-4-sulfonylamino]-3-methyl butyric acid], the IC50 at MMP-13 (setting [1]) was 1.2 nM; at MMP-2, 64 nM.

`CC(=O)c1cccc2oc(C(=O)Nc3ccc(-c4ccc(S(=O)(=O)N[C@H](C(=O)O)C(C)C)cc4)cc3)c(C)c12` [Example 94, N-[(4′-{[(4-Acetyl-3-methyl-1-benzofuran-2-yl)carbonyl]amino}-1,1′-biphenyl-4-yl)sulfonyl]-L-valine]: the IC50 worked out at 4.5 nM on MMP-13 (setting [1]) and 673 nM at MMP-2.
